Assay [1] concerns P. falciparum TM90-C235. Kind of assay: Malaria SYBR Green 1-Based Fluorescence (MSF) Assay, strain TM90-C235. It counts as cell-based. To be noted: for efficacy against TM90-C235 compared with D6 (cross-resistance): D6 versus TM90-C235; for IC50: Plasmodium falciparum; for C235 IC50: multi-drug resistant strain TM90-C235. On the procedure:
Compound activity against P. falciparum, the causative agent of malaria, was assessed using the Malaria SYBR Green 1-Based Fluorescence (MSF) Assay. This microtiter plate drug sensitivity assay uses the presence of malarial DNA as a measure of parasitic proliferation. The assay is a microtiter plate drug sensitivity assay that uses the presence of malarial DNA as a measure of parasitic proliferation in the presence of antimalarial drugs or experimental compounds based on modifications of previously described methods (Plouffe et al., Proc Natl Acad Sci USA. 2008, 105, 9059-9064), (Johnson et al., Antimicrob. Agents Chemother. 2005, 49, 3463-3467).
Selected compounds were examined for activity against two strains of P. falciparum: D6 (CDC/Sierra Leone), a drug-sensitive and readily killed by chloroquine, and TM90-C235, a multi-drug resistant strain resistant to chloroquine.
D6 (CDC/Sierra Leone) and TM90-C235 (WRAIR, Thailand) laboratory strains of P. falciparum were used for each drug sensitivity assessment. The parasite strains were maintained continuously in long-term cultures as previously described in Johnson et al, and P. falciparum strains in late-ring or early-trophozoite stages were cultured in predosed 384-well microtiter drug assay plates in 38 μl culture volume per well at a starting parasitemia of 0.3% and a hematocrit of 2%. Pre-dosed, sterile, 384 well black optical bottom microtiter drug plates for use in the MSF assay were produced using a Tecan EVO Freedom Liquid Handling System (Tecan US, Durham, N.C.). Dose response plates were produced at a final concentration ranging from 0.5-10000 ng/ml in quadruplicate (twelve two-fold serial dilutions of each test compound or chloroquine control in DMSO. Each run was validated by a batch control plate with chloroquine (Sigma-Aldrich Co., Catalog #C6628) at a final concentration of 2000 ng/ml. The cultures were incubated for 72 hours at 37° C., 5% CO2, 5% O2 and 90% N2. Lysis buffer (38 μl per well), consisting of 20 mM Tris HCl, 5 mM EDTA, 1.6% Triton X, 0.016% saponin, and SYBR green I dye at a 20× concentration (Invitrogen, Catalog #S-7567) was then added to the assay plates utilizing the Tecan EVO Freedom system for a final SYBR Green concentration of 10×. Plates were incubated in the dark at room temperature in the dark for 24 hours.
Compound activity was assessed by examining for the relative fluorescence units (RFU) per well using the Tecan Genios Plus (Tecan US, Inc., Durham, N.C.). GraphPad Prism (GraphPad Software Inc., San Diego, Calif.) using the nonlinear regression (sigmoidal dose-response/variable slope) equation was used to determine IC50 values.

In assay [2] the test system is RH-YFP tachyzoites. The assay can be described thus: Determination of static or cidal effects. Particulars: compound at 1 μM; for static or cidal effect: growth assessed at days 11, 17, 25. Type of assay: cell-based, T. gondii. On the procedure:
In order to determine whether leading compounds in this study inhibited parasite proliferation by either a cidal or static mechanism, four were selected (3i, 3j, 7a, and 14a) and applied at four to eight times MICs50 to parasites. In this assay, RH-YFP tachyzoites were treated with each compound at 1 μM under various dosing conditions:
Condition A: Parasites were treated for four days, then compound was removed
Condition B: Parasites were treated for ten days, then compound was removed
Condition C: Compound was refreshed at four days then removed at ten days
Condition D: Compound was maintained for the duration of the experiment
The four and ten day time points were taken to reveal the impact of extended exposure of the parasites to the test substance. Compounds were refreshed at four days to examine whether compound degradation could contribute to an observed static effect. Parasite growth was assessed at days 11, 17, and 25. The growth data, as a function of ^3H-uracil uptake, is expressed in FIG. 7. 4 days, Condition A; 10 days, renewed at 4, Condition B; 10 days, Condition C; All time, Condition D. Ordinate: Counts per minute.
RH-YFP tachyzoites were treated with each compound at 1 μM under one of four conditions: a) parasites were treated for four days, then compound was removed; b) parasites were treated for ten days, then compound was removed; c) compound was refreshed at four days and removed at ten; or d) compound was maintained for the duration of the experiment. The four and ten day time points were taken to reveal the impact of extended exposure of the parasites to the test substance. Compounds were refreshed at four days to examine whether compound degradation could contribute to an observed static effect. Parasite growth was assessed at 11, 17, and 25 days.

Assay [3] concerns T. gondii tachyzoites. The assay can be described thus: In vitro inhibition of T. gondii tachyzoites (RH-YFP fluorescence / [3H]-uracil incorporation). To be noted: for IC90 / IC50: Toxoplasma gondii; for activity against T. gondii tachyzoites, in words: only MIC50≦1 μM considered active. It counts as cell-based. On the procedure: Determination of the anti-apicomplexan activity of Compounds of Formula I may be determined by one skilled in the art. Parasite proliferation was monitored by using stably transfected type I RH-YFP parasites, which constitutively express Yellow Florescent Protein. Proliferation also was tested using a [^3H]-Uracil incorporation assay, as Uracil is incorporated into nucleic acids of T. gondii tachyzoites, but not mammalian cells, as they divide. Complimentary challenge assays ensured that the observed fluorescence data was due to parasite inhibition and not to quenched fluorescence. Pyrimethamine and sulfadiazine were used as positive controls, and DMSO at a concentration of 0.1% was used as the negative control. Because T. gondii is an obligate parasite, compounds that are toxic to host cells will appear to inhibit parasite growth. Therefore, all test compounds were simultaneously evaluated for efficacy and toxicity against human cells.
Test compounds were dissolved in DMSO to make a 10 mM solution, and subsequently diluted with IMDM-C to the concentrations used in bioassay. In the in vitro experiments DMSO concentration was not greater than 0.1% unless otherwise specified. RH-YFP parasites, which stably express Yellow Florescent Protein, were used. Tachyzoites were extracted from HFF cells by double passage through a 25-gauge needle, centrifuged for 15 minutes at 1500 RPM, and resuspended in IMDM-C. Confluent monolayers of HFF cells were infected with parasites in 96-well plates (Falcon 96 Optilux Flat-bottom) with 3,500 parasites in 100 uL per well. One hour after inoculation, test compounds and control media were added for a final volume of 200 uL per well. Parasite proliferation was assessed using [^3H]-Uracil incorporation or YFP Fluorescence assay.
Human Foreskin Fibroblast (HFF) cells were maintained in confluent monolayers in Iscoves's Modified Dulbecco's Medium supplemented with 10% fetal bovine serum, 1% GlutaMAX and 1% penicillin-streptomycin-fungizone (IMDM-C). T. gondii tachyzoites were cultivated in HFF monolayers. Parasites and cells were maintained at 33° C. or 37° C. and 5% CO2. The strains of parasite used in this study include RH, RH-YFP, and Prugnaud FLUC (Type 2 parasites stably transfected with luciferase), Me49 strain, and TgGoatUS4 isolate.
25 μL of 0.1 mCi/mL*^3H]-Uracil or [^3H]-Thymidine was added to each well 24 hours before reading plates. At harvesting, contents of the wells were transferred onto a 96-well UniFilter GF/C filter plates using a Filtermate 196 cell harvester (Packard). [^3H]-Uracil and [^3H]-Thymidine incorporation was measured using a Microplate Scintillation Luminescence Counter (Packard).
72 hours after initiation of the in vitro challenge assay, parasite proliferation was assessed by reading fluorescence of YFP parasites with a Synergy H4 Hybrid Reader (BioTek) and Gen5 1.10 software, using a bottom optics positions, excitation wavelength of 514 nm, and emission wavelength of 540 nm.

The mark [4] stands for this setting: TM90, multi-drug resistant strain TM90-C235, read-out: C235 IC50.
Where [5] appears, read: serial dilutions, additional test concentrations, RH-YFP, read-out: IC90.
The mark [6] stands for this setting: serial dilutions, additional test concentrations, RH-YFP, read-out: IC50.

Entries after “also recorded” stand apart in the source; their conditions may differ. Where two headings read alike, the source gives them in different places. Bounds are passed on as bounds.

The values that follow come from patent US20130324555A1, “Method of use of pharmaceutical formulations for the treatment of apicomplexan diseases in animals” (priority 2012, published 2013).

For `CC(C)(C)c1cccc(NC(=O)c2cc(Cl)ccc2O)c1` [Compound 3i, N-(3-tert-butylphenyl)-5-chloro-2-hydroxybenzamide], in assay [1], the “efficacy against TM90-C235 compared with D6 (cross-resistance)” value was “two-fold higher IC50” and the “C235 IC50” value is listed as more than 2000 ng/mL. For the same compound, the IC50 in assay [1] (setting [4]) was more than 2 µg/mL. Moreover, the “static or cidal effect” value in assay [2] was “parasitostatic; also recorded: static effect”. In addition, in assay [3] (setting [5]), the IC90 lay in the range of 16 to 31 nM. In addition, the “activity against T. gondii tachyzoites, in words” value (from here on “activity”) in assay [3] is “active at low nanomolar concentrations”.

In the case of `CN(CC(=O)NN)C(=O)Oc1ccc(Cl)cc1C(=O)Nc1ccc([N+](=O)[O-])cc1Cl.Cl` [Compound 14a, 4-chloro-2-((2-chloro-4-nitrophenyl)carbamoyl)phenyl (2-hydrazinyl-2-oxoethyl)(methyl)carbamate hydrochloride], the “efficacy against TM90-C235 compared with D6 (cross-resistance)” value in assay [1] was “equally effective”. The IC50 in assay [1] (TM90, read-out: C235 IC50) turned out to be 1.32 µg/mL. Further, in assay [2], the “duration of treatment after which a cidal effect was shown” value (shortened to “duration of treatment”) is given as “ten days” and the “static or cidal effect” value is listed as “cidal”. In assay [3], the IC50 lay within 16 to 31 nM; the IC90 is 125 to 250 nM; the “activity” value is recorded as “active at low nanomolar concentrations”.

In the case of `O=C(Nc1cc(C(F)(F)F)cc(C(F)(F)F)c1)c1cc(Cl)ccc1O` [Compound 3j], in assay [1], the “efficacy against TM90-C235 compared with D6 (cross-resistance)” value is reported as “equally effective”. Besides, the IC50 in assay [1] (TM90, read-out: C235 IC50) was 0.541 µg/mL; in assay [3] (setting [6]) it was 16 to 31 nM. The “duration of treatment” value in assay [2] is “four days”. Moreover, in assay [2], the “static or cidal effect” value is “parasitocidal; also recorded: cidal”. For the same compound, in assay [3] (setting [5]), the IC90 was 125 to 250 nM. In addition, the “activity” value in assay [3] is recorded as “active at low nanomolar concentrations; also recorded: promising activity”.

Turning to `O=C(Oc1ccc(Cl)cc1C(=O)Nc1ccc([N+](=O)[O-])cc1Cl)c1ccccc1` [Compound 7a, 4-chloro-2-((2-chloro-4-nitrophenyl)carbamoyl)phenyl benzoate], in assay [1], the “efficacy against TM90-C235 compared with D6 (cross-resistance)” value is listed as “equally effective” and the “C235 IC50” value is on record as 266.6 ng/mL. In addition, in assay [1] (TM90, chloroquine resistant strain TM90-C235, read-out: TM90-C235 IC50), the IC50 was 600 nM. For the same compound, the IC50 in assay [1] (setting [4]) was 0.267 µg/mL. Moreover, in assay [2], the “duration of treatment” value is given as “four days” and the “static or cidal effect” value is “parasitocidal; also recorded: cidal”. Moreover, the IC50 in assay [3] (setting [6]) was in the range of 61 to 125 nM. The IC90 in assay [3] (setting [5]) is 125 to 250 nM. Besides, the “activity” value in assay [3] is reported as “active at low nanomolar concentrations; also recorded: apparent increase in potency over 4”.

Take `CN(CC(=O)NN)C(=O)Oc1ccc(Cl)cc1C(=O)Nc1ccc(C(F)(F)F)cc1C(F)(F)F.Cl` [Compound 14b, 2-((2,4-bis(trifluoromethyl)phenyl)carbamoyl)-4-chlorophenyl (2-hydrazinyl-2-oxoethyl)(methyl)carbamate hydrochloride]: in assay [3], the IC50 lay within 125 to 250 nM; the IC90 was 125 to 250 nM; the “activity” value is on record as “active at low nanomolar concentrations”.
